This is an account of results in patent publication US4988681A, “Phosphinic acid derivatives” (Banyu Pharmaceutical Co., Ltd., priority 1988, dated 1991).

Data set [1] deals with T1, porcine kidney dehydropeptidase I (Sus scrofa, UniProt P22412).
T1 construct: Frozen porcine kidney cortex was homogenized; from tissue; host or cells: porcine kidney cortex
T1 sequence (P22412 17-409): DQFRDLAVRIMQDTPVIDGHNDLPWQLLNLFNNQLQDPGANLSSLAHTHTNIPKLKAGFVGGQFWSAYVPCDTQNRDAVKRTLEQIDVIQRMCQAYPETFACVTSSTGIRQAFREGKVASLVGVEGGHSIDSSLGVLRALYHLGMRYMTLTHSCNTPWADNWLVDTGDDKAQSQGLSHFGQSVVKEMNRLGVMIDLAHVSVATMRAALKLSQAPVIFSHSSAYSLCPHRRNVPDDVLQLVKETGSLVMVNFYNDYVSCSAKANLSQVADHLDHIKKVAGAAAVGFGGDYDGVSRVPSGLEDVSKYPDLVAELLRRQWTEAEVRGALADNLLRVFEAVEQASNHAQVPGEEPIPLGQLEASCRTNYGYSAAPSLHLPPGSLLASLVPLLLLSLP
Briefly: Inhibitory activity on porcine kidney dehydropeptidase I (DHP-I). In kind it is biochemical. The procedure: (1) Inhibitory activity on porcine kidney dehydropeptidase I
(i) Purification of porcine dehydropeptidase I
Frozen porcine kidney cortex was homogenized. Butanol (1/4 volume) pre-cooled in a dry ice-acetone bath was added to the homogenate, and the mixture was stirred at 4° C. for 43 hours. The mixture was then dialyzed for one day and centrifuged at 3,000 g for 30 minutes. To the resulting supernatant was added ammonium sulfate. A precipitate at the salt concentration range between 50 and 75% was collected to give a crude enzyme preparation which was re-dissolved in a 50 mM MOPS buffer containing 0.5 M NaCl. The solution was charged on a cilastatin affinity column. Elution with a 50 mM MOPS buffer containing 0.5 M NaCN gave a purified enzyme preparation.
(ii) Measurement of inhibitory activity
The resulting enzyme preparation (3 mU) and an inhibitor were pre-incubatedat 37° C. for 3 hours in 2.7 ml of a 50 mM MOPS buffer (pH 7.4), and then 2.475 ml of the mixture was transferred into a cuvette. As a substrate, 25 microliters of a 5 mM glycyldehydrophenylalanine solution in a 50 mM MOPS buffer (pH 7.4) was added to start an enzymic reaction. The reaction was carried out at 37° C. in a spectrophotometer fitted with a constant-emperature device, and a decrease of the absorbance at 275 nm during a period of 5 minutes was measured. […] An IC50 value was calculated from the percent inhibition data.
One unit (U) is defined as the amount of the enzyme which hydrolyzes 1 micromole of the substrate (glycyldehydrophenylalanine) per minute at a substrate concentration of 0.05 mM at 37° C. in a 50 mM MOPS buffer (pH 7.4).

Data set [2] in a line: Effect on urinary recovery of carbapenem (imipenem) in rats. It counts as in vivo, Male SD rats. The note with it: inhibitor 10 mg/kg iv with imipenem 10 mg/kg iv, urine up to 8 hours, n = 3. The procedure:
(2) Effect on urinary recovery of carbapenem
Male SD rats (8 week-old) were grouped, three per group. Imipenem alone was intravenously administered in a dose of 10 mg/kg to a first group. […] For comparison, a combination of imipenem (10 mg/kg) and cilastatin (10 mg/kg) was intravenously administered to a fourth group.
The urinary recovery of imipenem was calculated.

A short description of data set [3]: Pharmacokinetic evaluation: plasma concentration in rats. In kind it is in vivo, Male SD rats. The note with it: in vivo, rat, iv 10 mg/kg (cilastatin dose not given). How it is done:
(4) Pharmacokinetic evaluations
Male SD rats ([…]) were divided into groups each consisting of three animals. […] Furthermore, cilastatin was intravenously administered to a 14th group as a control group.
Plasma samples were taken periodically from the carotid artery through a cannula inserted into it at the points of 1/12, 1/4, 1/2, 1, 2, 4, 6, 8 and 24 hours after the administration.
The area under the curve (AUC) of the plasma concentration was determined according to the trapezoidal rule.

The next data set relates to DHP-I. The note with it: in words, cited from earlier work.
Where [4] appears, read: DHP-I inhibitory compounds of cited literature including cilastatin.

Structures are written as SMILES.

In the case of `CC1(C)C[C@@H]1C(=O)N/C(=C\CCCCSC[C@H](N)C(=O)O)C(=O)O` [Cilastatin, reference compound], the half-inhibitory concentration (IC50) in data set [1] stood at 100 nM. The “Urinary recovery of imipenem, Mean ± S.D.” value in data set [2] was 85.9 ± 2.9%. Further, in data set [3] (trapezoidal rule), the AUC came out at 12000 ng·h/mL. Further, in data set [3] (1/2 h), the concentration at 0.5 h amounted to 5800 ng/mL. In data set [3] (1/4 h), this molecule had a concentration at 0.25 h of 18800 ng/mL. The molecule also yielded a concentration at 5 min in data set [3] (1/12 h) of 46900 ng/mL. Also, in the data set with DHP-I (setting [4]), the “Activity in oral administration” value is “do not show sufficient activity in oral administration” and the Duration of action entry is listed as “do not always have satisfactory duration of action”. For the same molecule, in the data set on DHP-I (combined use with imipenem), the “Effect on potential renal toxicity of imipenem” value is reported as “prevent its potential renal toxicity” and the “Effect on urinary recovery of imipenem” value is listed as “greatly improve urinary recovery of imipenem”. Besides, the Oral absorption result in the data set with DHP-I is “not orally absorbable”.

Usually IC50 stands for the concentration at which inhibition is half-maximal. In general, AUC refers to the area under the concentration-time curve, a measure of exposure. A high value points to high exposure.
